Results reported in the supplement of paper PMC10307832.

Columns and labels:
Experiment in all cases: relative viability (nuclei count vs DMSO), 5 days (fraction); higher = more cells survive
Halofuginone + AZD7762 = compound: O=C(C[C@H]1NCCC[C@@H]1O)Cn1cnc2cc(Br)c(Cl)cc2c1=O (racemic) [Halofuginone] + NC(=O)Nc1cc(-c2cccc(F)c2)sc1C(=O)N[C@H]1CCCNC1 [AZD7762] (partner 0.2 µM)
Procedure, shortened: (§1)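 Relative viability divides the nuclei count in treated wells by that in vehicle wells. Lung cancer cell lines were seeded in 1536-well plates, dosed by pin tool the next day, and fixed and stained after 5 days in one step with final 0.05% Triton X-100, 1% formaldehyde and 1 ug/ml Hoechst. Dosing was a single drug or a fixed anchor-drug dose plus five library-drug doses (not always all listed) in √10 steps, and values are medians of duplicate plates imaged at 4×.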

Halofuginone + Lapatinib = compound: O=C(C[C@H]1NCCC[C@@H]1O)Cn1cnc2cc(Br)c(Cl)cc2c1=O (racemic) [Halofuginone] + CS(=O)(=O)CCNCc1ccc(-c2ccc3ncnc(Nc4ccc(OCc5cccc(F)c5)c(Cl)c4)c3c2)o1 [Lapatinib] (partner 2 µM)
Procedure, shortened: as §1

Halofuginone + Foretinib = compound: O=C(C[C@H]1NCCC[C@@H]1O)Cn1cnc2cc(Br)c(Cl)cc2c1=O (racemic) [Halofuginone] + COc1cc2c(Oc3ccc(NC(=O)C4(C(=O)Nc5ccc(F)cc5)CC4)cc3F)ccnc2cc1OCCCN1CCOCC1 [Foretinib] (partner 0.25 µM)
Procedure, shortened: as §1

[1] = compound: O=C(C[C@H]1NCCC[C@@H]1O)Cn1cnc2cc(Br)c(Cl)cc2c1=O (racemic) [Halofuginone] + O=C(CCCCCCC(=O)Nc1ccccc1)NO [Vorinostat] (partner 1 µM)
Procedure, shortened: as §1

| Cell Line | relative viability (Halofuginone + AZD7762; first compound 0.001 µM) | relative viability (Halofuginone + AZD7762; first compound 0.003162 µM) | relative viability (Halofuginone + AZD7762; first compound 0.01 µM) | relative viability (Halofuginone + AZD7762; first compound 0.03162 µM) | relative viability (Halofuginone + AZD7762; first compound 0.1 µM) | relative viability (Halofuginone + Lapatinib; first compound 0.001 µM) | relative viability (Halofuginone + Lapatinib; first compound 0.003162 µM) | relative viability (Halofuginone + Lapatinib; first compound 0.01 µM) | relative viability (Halofuginone + Lapatinib; first compound 0.03162 µM) | relative viability (Halofuginone + Lapatinib; first compound 0.1 µM) | relative viability (Halofuginone + Foretinib; first compound 0.001 µM) | relative viability (Halofuginone + Foretinib; first compound 0.003162 µM) | relative viability (Halofuginone + Foretinib; first compound 0.01 µM) | relative viability (Halofuginone + Foretinib; first compound 0.03162 µM) | relative viability (Halofuginone + Foretinib; first compound 0.1 µM) | relative viability ([1]; first compound 0.001 µM) | relative viability ([1]; first compound 0.003162 µM) | relative viability ([1]; first compound 0.01 µM) | relative viability ([1]; first compound 0.03162 µM) | relative viability ([1]; first compound 0.1 µM) |
| --- | --- | --- | --- | --- | --- | --- | --- | --- | --- | --- | --- | --- | --- | --- | --- | --- | --- | --- | --- | --- |
| HOP-62 | 0.573 | 0.676 | 0.47 | 0.599 | 0.327 | 0.983 | 1.09 | 0.936 | 0.791 | 0.948 | 1.09 | 1.22 | 1.02 | 0.96 | 0.704 | 0.675 | 0.597 | 0.603 | 0.566 | 0.279 |
| LC-2-ad | 0.841 | 0.878 | 0.831 | 0.885 | 0.576 | 0.98 | 1.02 | 0.93 | 0.874 | 0.726 | 0.928 | 0.973 | 0.866 | 1 | 0.497 | 0.695 | 0.706 | 0.69 | 0.696 | 0.686 |
| LCLC-97TM1 | 0.33 | 0.18 | 0.211 | 0.22 | 0.237 | 0.72 | 0.881 | 1.02 | 0.754 | 0.825 | 1.02 | 0.947 | 0.935 | 1.02 | 0.935 | 0.757 | 0.602 | 0.726 | 0.622 | 0.419 |
| LK-2 | 0.583 | 0.432 | 0.487 | 0.491 | 0.281 | 1.01 | 0.801 | 0.951 | 0.891 | 0.778 | 1.03 | 1.42 | 1.29 | 0.972 | 0.875 | 0.331 | 0.292 | 0.292 | 0.353 | 0.254 |
| LOU-NH91 | 0.793 | 0.735 | 0.767 | 0.691 | 0.664 | 0.77 | 0.746 | 0.747 | 0.738 | 0.676 | 0.985 | 0.917 | 0.887 | 0.925 | 0.949 | 0.929 | 0.955 | 0.898 | 0.907 | 0.779 |
| LU99A | 0.323 | 0.347 | 0.384 | 0.327 | 0.346 | 0.985 | 0.965 | 0.892 | 0.934 | 0.607 | 0.8 | 0.725 | 0.817 | 0.814 | 0.768 | 0.482 | 0.578 | 0.51 | 0.479 | 0.453 |
| LXF-289 | 1.08 | 1.17 | 1.02 | 1.12 | 1.01 | 0.891 | 0.893 | 0.847 | 0.874 | 0.895 | 1.01 | 1.04 | 0.927 | 1.01 | 0.922 | 0.709 | 0.829 | 0.728 | 0.763 | 0.686 |
| NCI-H23 | 0.32 | 0.184 | 0.223 | 0.233 | 0.246 | 1.28 | 1.03 | 1.2 | 0.713 | 0.707 | 1 | 0.919 | 0.852 | 0.991 | 0.478 | 0.664 | 0.521 | 0.559 | 0.553 | 0.534 |
| NCI-H322M | 0.517 | 0.708 | 0.526 | 0.614 | 0.426 | 0.47 | 0.583 | 0.585 | 0.607 | 0.493 | 0.896 | 0.948 | 0.913 | 0.833 | 0.374 | 0.935 | 0.967 | 0.811 | 0.865 | 0.561 |
| NCI-H358 | 0.496 | 0.492 | 0.447 | 0.246 | 0.149 | 0.56 | 0.432 | 0.376 | 0.282 | 0.232 | 0.754 | 0.393 | 0.448 | 0.212 | 0.0804 | 0.79 | 0.702 | 0.634 | 0.233 | 0.109 |
| NCI-H460 | 0.725 | 0.601 | 0.673 | 0.605 | 0.305 | 0.948 | 1.27 | 0.967 | 0.573 | 0.11 | 1.01 | 1.08 | 0.899 | 0.942 | 0.113 | 0.675 | 0.756 | 0.744 | 0.495 | 0.176 |
| NCI-H596 | 1.19 | 1.18 | 1.1 | 0.95 | 0.722 | 1.06 | 1.18 | 1.02 | 1.07 | 0.661 | 0.885 | 0.804 | 0.78 | 0.69 | 0.314 | 0.628 | 0.502 | 0.58 | 0.648 | 0.562 |
| NCI-H647 | 0.489 | 0.451 | 0.52 | 0.388 | 0.416 | 1.14 | 1.07 | 1.04 | 1.02 | 0.533 | 1.18 | 1.23 | 1.16 | 0.979 | 0.528 | 0.833 | 0.499 | 0.489 | 0.453 | 0.103 |
| NCI-H650 | 1.06 | 0.848 | 1.21 | 1 | 0.594 | 1.12 | 0.48 | 1 | 0.775 | 0.515 | 1.07 | 0.966 | 0.965 | 1.06 | 0.885 | 0.792 | 0.537 | 0.5 | 0.376 | 0.355 |
| NCI-H727 | 0.777 | 0.551 | 0.72 | 0.677 | 0.634 | 0.704 | 0.676 | 0.949 | 0.798 | 0.508 | 1.11 | 0.884 | 0.732 | 0.738 | 0.527 | 1.23 | 1.05 | 1.06 | 1.35 | 1.21 |
| NCI-H838 | 1.02 | 0.799 | 0.933 | 0.876 | 0.751 | 1.25 | 1.16 | 0.891 | 0.748 | 0.164 | 1.18 | 1.02 | 1 | 0.681 | 0.395 | 0.752 | 0.746 | 0.703 | 0.507 | 0.16 |
